# In paper PMC5482477, “Overexpression and characterization of two types of nitrile hydratases from Rhodococcus rhodochrous J1” (PLoS ONE, 2017):
# Target: T1, H-NHase (NhhBA) (Rhodococcus rhodochrous, UniProt P21219+P21220)
# T1 construct: gene nhhA; alpha10beta10, 504 kDa by gel filtration; cobalt-containing
# T1 sequence (P21219 2-203): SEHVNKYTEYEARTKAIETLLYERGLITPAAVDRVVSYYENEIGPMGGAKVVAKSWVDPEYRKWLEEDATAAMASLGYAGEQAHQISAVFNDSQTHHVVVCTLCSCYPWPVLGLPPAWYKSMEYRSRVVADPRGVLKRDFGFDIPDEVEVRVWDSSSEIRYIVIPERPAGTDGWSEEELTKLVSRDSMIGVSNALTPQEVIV
# T1 sequence (P21220 1-229): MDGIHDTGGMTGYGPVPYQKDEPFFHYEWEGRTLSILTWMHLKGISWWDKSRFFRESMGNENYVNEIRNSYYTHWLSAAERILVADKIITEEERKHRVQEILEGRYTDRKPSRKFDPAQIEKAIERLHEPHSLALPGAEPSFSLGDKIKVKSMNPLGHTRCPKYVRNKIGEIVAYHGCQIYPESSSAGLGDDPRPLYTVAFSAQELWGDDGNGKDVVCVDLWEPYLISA
# Assay: residual activity after […] min treatment, HPLC
# Assay type: biochemical
smiles,measurement,value
NC(=O)c1cccnc1 [nicotinamide],remaining activity at 1.5 M,60%
